Reference: US20240002326A1, “COMPOUNDS AND USE THEREOF IN METHODS OF TREATMENT” (The University of Queensland, priority 2016, published 2024)
Entries after “also recorded” stand apart in the source; their conditions may differ. *1 amine or outer side, *2 acyl side, *3 side chain or, on linkers, in order; H or OH if unused. Where a SMILES comes first, the peptide text is derived from it. Bridges are numbered along the chain shown (N, C = ends). Roman numbers before positions name the chains, in order. [ ]: non-standard residue; d: D form. Actinocin(9to1) = Cc1c2oc3c(C)ccc(C(=O)[*:1])c3nc-2c(C(=O)[*:2])c(N)c1=O; NMeV = CN[C@H](C(=O)O)C(C)C; Sar = CNCC(=O)O

Key:
[1] = biological target: SOX18-RBPJ interaction (Homo sapiens (Human), UniProt P35713); assay: ALPHAScreen SOX18-RBPJ protein-protein interaction; assay type: binding
Sequence of SOX18-RBPJ interaction (P35713 whole entry): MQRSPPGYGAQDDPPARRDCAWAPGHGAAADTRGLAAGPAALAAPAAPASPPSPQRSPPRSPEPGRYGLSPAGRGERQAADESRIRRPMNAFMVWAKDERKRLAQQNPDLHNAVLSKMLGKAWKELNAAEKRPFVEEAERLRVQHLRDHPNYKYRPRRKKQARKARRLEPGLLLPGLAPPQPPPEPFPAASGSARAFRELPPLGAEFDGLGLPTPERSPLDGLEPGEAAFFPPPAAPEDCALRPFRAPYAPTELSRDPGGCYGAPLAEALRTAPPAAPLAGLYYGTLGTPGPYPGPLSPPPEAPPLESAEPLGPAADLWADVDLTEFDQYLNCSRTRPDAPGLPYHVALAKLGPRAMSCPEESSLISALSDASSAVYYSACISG
Source text: Proteins were genetically encoded with enhanced GFP (GFP), mCherry and cMyc (myc) tags, and cloned into cell free expression Gateway destination vectors: N-terminal GFP tagged (pCellFree_G03), N-terminal Cherry-cMyc (pCellFree_G07) and C-terminal Cherry-cMyc tagged (pCellFree_G08) (Gagoski et al., 2015). Human RBPJ (BC020780) and MEF2C (BC026341) Open Reading Frames (ORFs) were sourced from the Human ORFeome collection, version 1.1 and 5.1, and the Human Orfeome collaboration OCAA collection (Open Biosystems), as previously described (Sierecki et al., 2013) and cloned at the ARVEC facility, UQ Diamantina Institute. The entry clones pDONOR223 or pENTR201 vectors were exchanged with the ccdB gene in the expression plasmid by LR recombination (Life Technologies, Australia). The full-length human SOX18 gene was synthesized and the transfer to vectors was realized using Gateway PCR cloning. Translation competent Leishmania tarentolae extract (LTE) was prepared as previously described (Kovtun et al., 2011, Mureev et al., 2009). Protein pairs were co-expressed by adding 30 nM of GFP template plasmid and 60 nM of Cherry template plasmid to LTE and incubating for 3 hours at 27° C.
ALPHAScreen was performed as previously described (Sierecki et al., 2014, Sierecki et al., 2013). […] Percentage of interaction was calculated as: (I_cpd/I_DMSO)×100 from 3 independent experiments.
ALPHAScreen was performed as previously described (Sierecki et al., 2014, Sierecki et al., 2013), using the cMyc detection kit and Proxiplate-384 Plus plates (PerkinElmer). The LTE lysate co-expressing the proteins of interest was diluted in buffer A (25 mM HEPES, 50 mM NaCl). For the assay, 12.5 μL (0.4 μg) of Anti-cMyc coated Acceptor Beads in buffer B (25 mM HEPES, 50 mM NaCl, 0.001% NP40, 0.001% casein) were aliquoted into each well. This was followed by the addition of 2 μL of diluted sample, at different concentration, and 2 μL of biotin labeled GFP-Nanotrap in buffer A. The plates were incubated for 45 min at room temperature, then adding 2 μL (0.4 μg) of streptavidin-coated Donor Beads diluted in buffer A, and incubation in the dark for 45 min at room temperature. The ALPHAScreen signal was measured on an Envision Plate Reader (PerkinElmer), using manufacturer's recommended settings (λexc=680/30 nm for 0.18 s, λem=570/100 nm after 37 ms). The resulting bell-shaped curve is an indication of a positive interaction, while a flat line reflects a lack of interaction between the proteins. The measurement of each protein pair was repeated in triplicate.
I is the highest signal level (top of the hook effect curve) and Ineg is the lowest (background) signal level. The signals were normalized to the Iref signal obtained for the strongest interaction. […] Percentage of interaction was calculated as: […]
The ALPHA-Screen Assay was performed as previously described (Sierecki et al. 2014), using the cMyc detection kit and Proxiplate-384 Plus plates (PerkinElmer). A serial dilution of each sample was measured. The LTE lysate co-expressing the proteins of interest was diluted in buffer A (25 mM HEPES, 50 mM NaCl). For the assay, 12.5 μL (0.4 μg) of Anti-cMyc coated Acceptor Beads in buffer B (25 mM HEPES, 50 mM NaCl, 0.001% NP40, casein) were aliquoted into each well. This was followed by the addition of 2 μL of diluted sample and 2 μL of biotin labeled GFP-Nanotrap in buffer A. The plate was incubated for 45 min at RT. Afterward, 2 μL (0.4 μg) of Streptavidin coated Donor Beads diluted in buffer A, were added, followed by incubation in the dark for 45 min at RT. The ALPHA-Screen signal was obtained on an Envision Multilabel Plate Reader (PerkinElmer), using the manufacturer's recommended settings (excitation: 680/30 nm for 0.18 s, emission: 570/100 nm after 37 ms). The resulting bell-shaped curve is an indication of a positive interaction, while a flat line reflects a lack of interaction between the proteins. […]

[2] = test system: HEK293; assay: Cytotoxicity assay (Alamar blue), HEK293; assay type: cell-based; details: HEK293, 24 h
Method: Cell toxicity was determined using Alamar blue, as previously described (McMillian et al., 2002). COS-7 cells were seeded as 7000 cells per well in black wall clear bottom 96-well plates in DMEM medium (Life Technologies Australia) with 10% FBS. HepG2 and HEK293 cell lines, from ATCC, were seeded as 5000 cells per well in black wall clear bottom 384-well cell culture plates in DMEM with 1% FBS. Cells were cultured for 24 h at 37° C., 5% CO2. A serial dilution of compounds was added, with a final DMSO concentration adjusted to 0.5% v/v. Cells were incubated for another 24 h. 1 Triton X-100 was used as negative control, and 0.5% DMSO as positive control. 5 μM Alamar blue was added to each well and fluorescence was measured (λexc=560 nm, λem=590 nm) after 2 h incubation at 37° C. Data were analysed using Prism software.

[3] = test system: HepG2; assay: Cytotoxicity assay (Alamar blue), HepG2; assay type: cell-based; details: HepG2, 24 h
[4] = biological target: SOX18[109] HMG fragment (Mus musculus (Mouse), UniProt P43680); assay: FP DNA-binding competition assay, SOX18[109] HMG fragment; details: for FP bound fraction (%) 50 μM / FP bound fraction (%) 200 μM: SOX18/DNA binding
Sequence of SOX18[109] HMG fragment (P43680 69-177): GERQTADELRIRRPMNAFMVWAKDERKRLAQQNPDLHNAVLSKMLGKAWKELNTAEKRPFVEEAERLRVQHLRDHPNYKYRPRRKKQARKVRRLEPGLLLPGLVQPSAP
Method: Mouse SOX HMG fragments. The HMG domains of mouse SOX2 (Group B), SOX11 (Group C), SOX6 (Group D), SOX9 (Group E), SOX18 (Group F) and SOX15 (Group G) were BP cloned from cDNA templates (IMAGE cDNA clone IDs: Sox18: 3967084; Sox9: 5354229; Sox4: 6822618) into a pDONRTM221 pENTRY vector, sequenced and recombined into a pETG20A or a pHisMBP expression plasmid using Gateway®LR Technology (Ng et al., 2012). Constructs were transformed into Escherichia coli BL21(DE3) cells (Luria-Bertani, 100 μg/ml Ampicillin).
The DNA-binding competition assay was performed in black 384-well plates, with mouse full length SOX18, or SOX-HMG fragments. All experiments were performed using a fluorescently-labelled Prox1-DNA element. Controls consisted of free labelled DNA (low FP milli-Polarization index, mP), labelled DNA in presence of protein (negative control, high mP), and labelled DNA and protein in presence of competing excess of unlabelled DNA (positive control, low mP)
The DNA-binding competition assay was performed in 25 uL, in black 384-well plates, using either 30 mM HEPES (N-2-Hydroxyethylpiperazine-N′-2-Ethanesulfonic Acid) (pH 7.5, with 100 mM KCl, 40 mM NaCl, 10 mM NH4OAc, […], 2 mM MgCl2, 0.5 mM EDTA, 0.01% NP-40) for mouse full length SOX18, or Tris-NaCl (10 mM Tris pH 8.0 and 100 mM NaCl) for SOX-HMG fragments. All experiments were performed using a 40 bp double-stranded Prox1-DNA element with 5′ fluorescein amidite (FAM) label (Sigma Proligo or InVitrogen). Optimum binding levels were obtained at 200 nM of mouse full length SOX18 and 60 nM of SOX-HMG fragment, in presence of 5 nM labelled DNA. Controls consisted of free labelled DNA (low FP milli-Polarization index, mP), labelled DNA in presence of protein (negative control, high mP), and labelled DNA and protein in presence of 400 time competing excess of unlabelled DNA (positive control, low mP). Depending on compound, final DMSO concentrations ranged from 2 to 3.33% v/v. After mixing protein, DNA probe and compound, plates were sealed and briskly agitated in the dark for 5 minutes at room temperature, 10 minutes at 37° C., and 30 minutes at room temperature, before reading fluorescence polarization on a Tecan M1000Pro (λexc=485 nm, λem=525 nm). All experiments were performed in triplicates.
In order to pinpoint the possible binding site of the small molecules, the FP assays were repeated with a shorter, DNA-binding centred protein fragment. The DNA binding domain of SOX TFs consists of the […] amino acid long High Mobility Group (HMG) box. The 109 amino-acid long SOX18 fragment (SOX18[109]) corresponds to residues 69-177 (numbering by mouse SOX18), which includes the HMG box (residues 78-149) and N- and C-terminal flanking sequences of 9 and 28 amino-acids, respectively.

[5] = test system: SOX binding site consensus DNA; assay: Direct DNA-binding assay (SPR), consensus DNA; details: biotinylated double-strand DNA on streptavidin chip
Method: (§1) Compounds were tested at a 1% v/v DMSO in HBS-EP buffer (10 mM HEPES, 150 mM NaCl, 3 mM EDTA, 0.005% v/v polysorbate 20, pH 7.4). The same buffer supplemented with 1% v/v DMSO was used as a mobile phase. DNA minor groove binder DAPI (4′,6-diamidino-2-phenylindole), DNA intercalator and minor groove binder actinomycin D, and DNA intercalator ethidium bromide were used as positive controls. Biotinylated (one tag per probe) double strand DNA probes were prepared using a standard annealing routine (5 min at 100° C., room temperature overnight and stored at −20° C.) of single strand anti-parallel DNA Probes purchased from Geneworks and were immobilized on CM5-SA streptavidin chips as per manufacturer's recommendations. […] All sample and control cycles were performed in triplicate. DMSO calibration was performed as per manufacturer's recommendations. After each injection, an extra flow system wash was performed with 50% v/v DMSO to avoid carryover. Experiments were run on a Biacore T200 (GE Healthcare, USA), with one flow cell kept as a reference.
(§2) From a molecular viewpoint, an inhibitor of SOX18-DNA binding could act either by interacting directly with the DNA, or the protein, or at the interface between protein and DNA. Binding of small molecules directly to the DNA, even though reported for other TFs (Leung et al., 2013), has the potential for unspecific DNA binding, leading to possible genotoxicity, mutagenicity, or carcinogenicity. For this reason, we developed a direct binding assays to determine whether the active compounds interact directly with DNA or protein. A surface plasmon resonance-based method was developed to analyse the binding of small molecules to biotinylated double stranded DNA immobilized on the surface of a streptavidin chip. The method measures the rate of binding (kon), dissociation (koff) and binding constant (KD), and was used to measure the binding to two different DNA sequences: SOX binding site consensus DNA, and scrambled DNA. Intercalating agents ethidium bromide and Actinomycin D, and the minor groove-binding agent 4′,6-diamino-2-phenylindole (DAPI) were used as positive controls for unselective DNA binding.

[6] = test system: scrambled DNA; assay: Direct DNA-binding assay (SPR), scrambled DNA; details: biotinylated double-strand DNA on streptavidin chip
Method: as §1, §2

Molecule	SOX18-RBPJ protein-protein binding inhibition at 5 μM ([1]; 5 μM)	CC50 [2] [µM]	CC50 [3] [µM]	FP bound fraction (%) 50 μM [4] [%]	FP bound fraction (%) 200 μM [4] [%]	effect on SOX18-RBPJ interaction (PPI) ([1]; ALPHAScreen)	SOX18-DNA binding inhibition (FP, words) ([4]; SAR library, SOX18[109])	binding to consensus DNA (SPR) [5]	binding to scrambled DNA (SPR) [6]
COc1cccc(C=Cc2ccc3ccccc3c2)c1C(=O)O (mixture of isomers) [Sm19, (E/Z)-2-methoxy-6-(2-(naphthalen-2-yl)vinyl)benzoic acid]	highly active	> 100	> 100	99.2 ± 6.8	107.6 ± 4.5	–	–	–	–
O=C(O)c1c(O)cccc1C=Cc1ccc2ccccc2c1 (mixture of isomers) [Sm20, (E/Z)-2-hydroxy-6-(2(naphthalen-2-yl)vinyl)benzoic acid]	–	97.1	71.3	10.3 ± 4.1	11.9 ± 8.5	inhibit both DNA and PPI	displayed SOX18-DNA binding inhibiting activity; also recorded: inhibit both DNA and PPI	–	–
N=C(N)c1ccc(-c2cc3ccc(C(=N)N)cc3[nH]2)cc1 [DAPI, 4′,6-diamidino-2-phenylindole]	–	–	–	–	–	–	–	bind to DNA	bind to DNA
Cc1c2oc3c(C)ccc(C(=O)N[C@@H]4C(=O)N[C@H](C(C)C)C(=O)N5CCC[C@H]5C(=O)N(C)CC(=O)N(C)[C@@H](C(C)C)C(=O)O[C@@H]4C)c3nc-2c(C(=O)N[C@@H]2C(=O)N[C@H](C(C)C)C(=O)N3CCC[C@H]3C(=O)N(C)CC(=O)N(C)[C@@H](C(C)C)C(=O)O[C@@H]2C)c(N)c1=O [actinomycin D] (I: T[dV]P[Sar][NMeV] / II: T[dV]P[Sar][NMeV]; ester I:1-I:C, II:1-II:C; linker I:N-II:N via Actinocin(9to1))	–	–	–	–	–	–	–	bind to DNA	bind to DNA
CC[n+]1c(-c2ccccc2)c2cc(N)ccc2c2ccc(N)cc21 [ethidium bromide]	–	–	–	–	–	–	–	bind to DNA	bind to DNA
N,N-diethyl-2-methoxy-6-(2-(naphthalene-2-yl)vinyl)benzamide [Sm17]	–	62.6	38.5	100.3 ± 6.0	117.0 ± 10.9	–	–	–	–
